Test results reported in ChEMBL document CHEMBL3885861, “Open TG-GATES”.

Species: Rattus norvegicus
Assay: Open TG-GATES - Regimen: Single
Assay type: toxicity, organism-based, Sprague-Dawley
Parameters: regimen Single, gender Male, age 6 weeks
Conditions: in vivo, po, 0 mg/kg, route gavage, dose level Control; for APTT / Bas / Eos / Fbg / Hb / Ht / Lym / MCH / MCHC / MCV / Mono / Neu / PT / Plat / RBC / Ret / WBC: tissue Blood; for KIDNEY_L / KIDNEY_R / KIDNEY_TOTAL: tissue Kidney; for LIVER: tissue Liver; for A/G / ALP / ALT / AST / BUN / CRE / Ca / Cl / DBIL / GLC / IP / K / LDH / Na / PL / RALB / TBIL / TC / TG / TP / gamma-GTP: tissue Plasma

Compound: CC[C@H]1[C@@H]2C[C@H]3[C@@H]4N(C)c5ccccc5[C@]45C[C@@H]([C@@H]2[C@H]5O)N3[C@@H]1O [AJMALINE]
- TERMINAL_BW (3 h): 194.6 g
- APTT (3 h): 16.6 s
- Bas (3 h): 0%
- Eos (3 h): 1%
- Fbg (3 h): 202.8 mg/dL
- Hb (3 h): 12.8 g/dL
- Ht (3 h): 39.1%
- Lym (3 h): 80.2%
- MCH (3 h): 21.8 pg
- MCHC (3 h): 32.9%
- MCV (3 h): 66.3 fL
- Mono (3 h): 6.8%
- Neu (3 h): 12.2%
- PT (3 h): 11.6 s
- Plat (3 h): 109.9 x10_4/uL
- RBC (3 h): 589.2 x10_4/ul
- Ret (3 h): 12.5%
- WBC (3 h): 94.6 x10_2/uL
- KIDNEY_L (3 h): 0.9 g
- KIDNEY_R (3 h): 0.9 g
- KIDNEY_TOTAL (3 h): 1.9 g
- LIVER (3 h): 9.4 g
- A/G (3 h): 2.5
- ALP (3 h): 879.4 IU/L
- ALT (3 h): 34.6 IU/L
- AST (3 h): 66.8 IU/L
- BUN (3 h): 10.6 mg/dL
- CRE (3 h): 0.4 mg/dL
- Ca (3 h): 11.4 mg/dL
- Cl (3 h): 100.8 meq/L
- DBIL (3 h): 0.04 mg/dL
- GLC (3 h): 191.4 mg/dL
- IP (3 h): 9.5 mg/dL
- K (3 h): 4.4 meq/L
- LDH (3 h): 95.4 IU/L
- Na (3 h): 137.2 meq/L
- PL (3 h): 149 mg/dL
- RALB (3 h): 3.7 g/dL
- TBIL (3 h): 0.3 mg/dL
- TC (3 h): 82.4 mg/dL
- TG (3 h): 69.4 mg/dL
- TP (3 h): 5.3 g/dL
- gamma-GTP (3 h): 2 IU/L
- TERMINAL_BW (6 h): 192.3 g
- APTT (6 h): 16.9 s
- Bas (6 h): 0%
- Eos (6 h): 1.2%
- Fbg (6 h): 196.2 mg/dL
- Hb (6 h): 13 g/dL
- Ht (6 h): 39.5%
- Lym (6 h): 73.4%
- MCH (6 h): 21.5 pg
- MCHC (6 h): 32.8%
- MCV (6 h): 65.3 fL
- Mono (6 h): 10.6%
- Neu (6 h): 15%
- PT (6 h): 11.6 s
- Plat (6 h): 113.8 x10_4/uL
- RBC (6 h): 605.4 x10_4/ul
- Ret (6 h): 10.6%
- WBC (6 h): 102.3 x10_2/uL
- KIDNEY_L (6 h): 0.9 g
- KIDNEY_R (6 h): 0.9 g
- KIDNEY_TOTAL (6 h): 1.7 g
- LIVER (6 h): 8.3 g
- A/G (6 h): 2.2
- ALP (6 h): 832.4 IU/L
- ALT (6 h): 34.6 IU/L
- AST (6 h): 61.8 IU/L
- BUN (6 h): 9.6 mg/dL
- CRE (6 h): 0.5 mg/dL
- Ca (6 h): 10.7 mg/dL
- Cl (6 h): 103.4 meq/L
- DBIL (6 h): 0.042 mg/dL
- GLC (6 h): 187 mg/dL
- IP (6 h): 10 mg/dL
- K (6 h): 4.8 meq/L
- LDH (6 h): 72.6 IU/L
- Na (6 h): 138.8 meq/L
- PL (6 h): 133.2 mg/dL
- RALB (6 h): 3.5 g/dL
- TBIL (6 h): 0.4 mg/dL
- TC (6 h): 83.6 mg/dL
- TG (6 h): 64.8 mg/dL
- TP (6 h): 5.2 g/dL
- gamma-GTP (6 h): 1.6 IU/L
- TERMINAL_BW (9 h): 192.7 g
- APTT (9 h): 17.8 s
- Bas (9 h): 0%
- Eos (9 h): 1%
- Fbg (9 h): 199.4 mg/dL
- Hb (9 h): 12.7 g/dL
- Ht (9 h): 38.6%
- Lym (9 h): 79.6%
- MCH (9 h): 22.2 pg
- MCHC (9 h): 32.9%
- MCV (9 h): 67.5 fL
- Mono (9 h): 7.8%
- Neu (9 h): 11.6%
- PT (9 h): 12.3 s
- Plat (9 h): 114.2 x10_4/uL
- RBC (9 h): 573.2 x10_4/ul
- Ret (9 h): 9.6%
- WBC (9 h): 93.3 x10_2/uL
- KIDNEY_L (9 h): 0.9 g
- KIDNEY_R (9 h): 0.9 g
- KIDNEY_TOTAL (9 h): 1.8 g
- LIVER (9 h): 8.2 g
- A/G (9 h): 2.4
- ALP (9 h): 800.8 IU/L
- ALT (9 h): 32.6 IU/L
- AST (9 h): 63 IU/L
- BUN (9 h): 12.2 mg/dL
- CRE (9 h): 0.6 mg/dL
- Ca (9 h): 10.4 mg/dL
- Cl (9 h): 104.6 meq/L
- DBIL (9 h): 0.064 mg/dL
- GLC (9 h): 190.4 mg/dL
- IP (9 h): 10.4 mg/dL
- K (9 h): 4.9 meq/L
- LDH (9 h): 82 IU/L
- Na (9 h): 138.2 meq/L
- PL (9 h): 126.4 mg/dL
- RALB (9 h): 3.7 g/dL
- TBIL (9 h): 0.3 mg/dL
- TC (9 h): 74.6 mg/dL
- TG (9 h): 42.8 mg/dL
- TP (9 h): 5.2 g/dL
- gamma-GTP (9 h): 0.8 IU/L
- TERMINAL_BW (24 h): 206.2 g
- APTT (24 h): 16.5 s
- Bas (24 h): 0%
- Eos (24 h): 0.8%
- Fbg (24 h): 211.2 mg/dL
- Hb (24 h): 12.6 g/dL
- Ht (24 h): 38.2%
- Lym (24 h): 75%
- MCH (24 h): 21.6 pg
- MCHC (24 h): 33.1%
- MCV (24 h): 65.4 fL
- Mono (24 h): 8.4%
- Neu (24 h): 15.6%
- PT (24 h): 11.5 s
- Plat (24 h): 106.9 x10_4/uL
- RBC (24 h): 584.2 x10_4/ul
- Ret (24 h): 10.1%
- WBC (24 h): 107.2 x10_2/uL
- KIDNEY_L (24 h): 0.9 g
- KIDNEY_R (24 h): 0.9 g
- KIDNEY_TOTAL (24 h): 1.8 g
- LIVER (24 h): 10.2 g
- A/G (24 h): 2.1
- ALP (24 h): 885.6 IU/L
- ALT (24 h): 38.6 IU/L
- AST (24 h): 66.4 IU/L
- BUN (24 h): 16.8 mg/dL
- CRE (24 h): 0.6 mg/dL
- Ca (24 h): 11 mg/dL
- Cl (24 h): 102.6 meq/L
- DBIL (24 h): 0.026 mg/dL
- GLC (24 h): 202.2 mg/dL
- IP (24 h): 8.4 mg/dL
- K (24 h): 4.6 meq/L
- LDH (24 h): 86.8 IU/L
- Na (24 h): 140.6 meq/L
- PL (24 h): 146.8 mg/dL
- RALB (24 h): 3.6 g/dL
- TBIL (24 h): 0.3 mg/dL
- TC (24 h): 81 mg/dL
- TG (24 h): 103 mg/dL
- TP (24 h): 5.4 g/dL
- gamma-GTP (24 h): 1.2 IU/L
